Data on five compounds can be found in paper PMC6213900, “Design, Synthesis, and Cytotoxic Analysis of Novel Hederagenin–Pyrazine Derivatives Based on Partial Least Squares Discriminant Analysis” (International Journal of Molecular Sciences, 2018).

For orientation: melting point means the temperature of the solid-liquid transition.

The test system of data set [1] is MDCK (Madin–Darby canine kidney) cells. Put plainly: MTT toxicity evaluation, MDCK. The format is cell-based. The settings on record: Canis lupus familiaris, MDCK, 72 h treatment, non-tumor cells, read-out: Half Maximal Inhibitory Concentration (IC50) MDCK. As to the method: (§1) The cytotoxicity of hederagenin derivatives in vitro was evaluated on three tumor cell lines (A549: human non-small-cell lung cancer; MCF-7: human mammary cancer; HepG2: human hepatocellular carcinoma) using the 3-(4,5-dimethylthiazol-2-yl)-2,5-diphenyltetrazolium bromide (MTT) assay. In addition, their toxicity evaluations were tested on H9c2 (murine heart myoblast) and MDCK (Madin–Darby canine kidney) cells. MCF-7, A549, HepG2, H9c2, and MDCK cells were obtained from the Chinese Academy of Medical Sciences and Peking Union Medical College. All of the cell lines were maintained in Dulbecco’s modified Eagle medium (DMEM) supplemented with 1% (v/v) penicillin/streptomycin and 10% (v/v) fetal bovine serum (FBS; Thermo Technologies, New York, NY, USA) under a humidified atmosphere containing 5% CO2 at 37 °C. The stock solutions of He derivatives were dissolved in dimethyl sulfoxide (DMSO; Sigma, St. Louis, MO, USA) and added at various concentrations to the cell culture. Cellular morphologies were observed using an inverted fluorescence microscope (Olympus IX71, Tokyo, Japan), a plate reader (BIORAD 550 spectrophotometer, Bio-rad Life Science Development Ltd., Beijing, China), and a Canton 2 flow cytometer (BD, New York, NY, USA). The antitumor activity of these compounds were evaluated on MCF-7, A549, HepG2, MDCK, and H9c2 cell lines using the MTT assay. Cells at a density of 3 × 10^3 cells/well were plated in a 96-multiwell plate in DMEM containing 10% FBS for 24 h at 37 °C with 5% CO2. Then, cells were treated for 72 h with the required concentrations (3.125, 6.25, 12.5, 25, or 50 μM) of the compounds and reference drugs (He and DDP) dissolved with the vehicle DMSO. After that, the culture substrate was replaced with 200 μL of DMEM containing 20 μL of MTT solution at 5 mg/mL and incubated for 4 h. The supernatant was removed and the dissolved formazans precipitated with 120 μL of DMSO. Wells without drugs were used as blanks. A plate reader was used to determine the absorbance at 490 nm. The above steps were repeated three times. The IC50 values were defined as the concentration of the compound which gave 50% growth inhibition, and they were calculated using Graph Pad Prism 5. The inhibition rate was calculated using the following formula, where OD is the optical density:% inhibition = 1 − (Sample group OD/Control group OD) × 100%. (1)

Data set [2] relates to H9c2 (murine heart myoblast). Put plainly: MTT toxicity evaluation, H9c2. It counts as cell-based. The following applies: H9c2, 72 h treatment, non-tumor cells, read-out: Half Maximal Inhibitory Concentration (IC50) H9c2. As for the experimental part: as §1
Data set [3] has as its system MCF-7 (human mammary cancer). Description: MTT cytotoxicity assay, MCF-7. The format is cell-based. The settings on record: Homo sapiens, MCF7, 72 h treatment, read-out: Half Maximal Inhibitory Concentration (IC50) MCF-7. As to the method: as §1
Background: Formazan colour is commonly taken as a measure of viable cells.

The test system of data set [4] is A549 (human non-small-cell lung cancer). Put plainly: MTT cytotoxicity assay, A549. It counts as cell-based. The following applies: Homo sapiens, A549, 72 h treatment, read-out: Half Maximal Inhibitory Concentration (IC50) A549. As to the method:
as §1

Data set [5] has as its system HepG2 (human hepatocellular carcinoma). Put plainly: MTT cytotoxicity assay, HepG2. It counts as cell-based. The settings on record: for IC50: Homo sapiens, HepG2, MTT, 72 h treatment, read-out: Half Maximal Inhibitory Concentration (IC50) HepG2. As to the method:
as §1

The structures appear in SMILES notation.

Take `Cc1nccnc1C(=O)OCCOC(=O)[C@]12CCC(C)(C)CC1C1=CCC3[C@@]4(C)CC[C@H](O)[C@@](C)(CO)C4CC[C@@]3(C)[C@]1(C)CC2` (stereo partly drawn) [Compound 11, 2-(((4aS,6aS,6bR,9R,10S,12aR)-10-Hydroxy-9-(hydroxymethyl)-2,2,6a,6b,9,12a-hexamethyl-1,2,3,4,4a,5,6,6a,6b,7,8,8a,9,10,11,12,12a,12b,13,14b-icosahydropicene-4a-carbonyl)oxy)ethyl-3-methylpyrazine-2-carboxylate]: the melting point stood at 146.8 °C. Moreover, the IC50 in data set [1] was found to be 18.64 ± 0.18 µM. Also, the IC50 in data set [2] came out at 14.7 ± 0.16 µM. Further, the IC50 in data set [3] is 27.3 ± 0.57 µM. Moreover, the IC50 in data set [4] was 14.12 ± 0.01 µM. In data set [5], the IC50 turned out to be 14.84 ± 0.03 µM.
Compound `Cc1ncc(C(=O)OCCOC(=O)[C@]23CCC(C)(C)CC2C2=CCC4[C@@]5(C)CC[C@H](O)[C@@](C)(CO)C5CC[C@@]4(C)[C@]2(C)CC3)nc1C` (stereo partly drawn) [Compound 12, 2-(((4aS,6aS,6bR,9R,10S,12aR)-10-Hydroxy-9-(hydroxymethyl)-2,2,6a,6b,9,12a-hexamethyl-1,2,3,4,4a,5,6,6a,6b,7,8,8a,9,10,11,12,12a,12b,13,14b-icosahydropicene-4a-carbonyl)oxy)ethyl-5,6-dimethylpyrazine-2-carboxylate] registered a melting point of 146.2 °C. Further, in data set [1], the IC50 was found to be 18.6 ± 0.71 µM. Besides, in data set [2], the IC50 amounted to 13.2 ± 0.2 µM. Moreover, in data set [3], the IC50 amounted to 17.3 ± 0.58 µM. In addition, the IC50 in data set [4] came out at 10.1 ± 2.47 µM. In addition, in data set [5], the IC50 was 14.42 ± 0.03 µM.
Compound `Cc1nc(C)c(C(=O)OCCOC(=O)[C@]23CCC(C)(C)CC2C2=CCC4[C@@]5(C)CC[C@H](O)[C@@](C)(CO)C5CC[C@@]4(C)[C@]2(C)CC3)nc1C` (stereo partly drawn) [Compound 13, 2-(((4aS,6aS,6bR,9R,10S,12aR)-10-Hydroxy-9-(hydroxymethyl)-2,2,6a,6b,9,12a-hexamethyl-1,2,3,4,4a,5,6,6a,6b,7,8,8a,9,10,11,12,12a,12b,13,14b-icosahydropicene-4a-carbonyl)oxy)ethyl-3,5,6-trimethylpyrazine-2-carboxylate] had a melting point of 150.6 °C. Further, the IC50 in data set [1] was 23.22 ± 0.01 µM. Further, the IC50 in data set [2] worked out at 10.5 ± 0.61 µM. The IC50 in data set [3] is 18.03 ± 0.18 µM. For the same compound, the IC50 in data set [4] was determined as 8.15 ± 0.17 µM. In addition, the IC50 in data set [5] was 13.2 ± 0.29 µM.
Turning to `CC1(C)CC[C@]2(C(=O)OCCCCOC(=O)c3cnccn3)CC[C@]3(C)C(=CCC4[C@@]5(C)CC[C@H](O)[C@@](C)(CO)C5CC[C@]43C)C2C1` (stereo partly drawn) [Compound 14, 4-(((4aS,6aS,6bR,9R,10S,12aR)-10-Gydroxy-9-(hydroxymethyl)-2,2,6a,6b,9,12a-hexamethyl-1,2,3,4,4a,5,6,6a,6b,7,8,8a,9,10,11,12,12a,12b,13,14b-icosahydropicene-4a-carbonyl)oxy)butyl-pyrazine-2-carboxylate], the melting point is 127 °C. Moreover, the IC50 in data set [1] is 18.1 ± 0.12 µM. Further, the IC50 in data set [2] amounted to 15.9 ± 0.22 µM. Further, the IC50 in data set [3] was found to be 31.23 ± 0.15 µM. In addition, in data set [4], the IC50 is 17.6 ± 2.33 µM. In addition, the IC50 in data set [5] amounted to 7.05 ± 0.17 µM. The “selective inhibition (SI = IC50 MCF-7/IC50 HepG2)” value in data set [5] (ratio of IC50 MCF-7 to IC50 HepG2) is on record as 4.43.
`Cc1cncc(C(=O)OCCCCOC(=O)[C@]23CCC(C)(C)CC2C2=CCC4[C@@]5(C)CC[C@H](O)[C@@](C)(CO)C5CC[C@@]4(C)[C@]2(C)CC3)n1` (stereo partly drawn) [Compound 15, 4-(((4aS,6aS,6bR,9R,10S,12aR)-10-Hydroxy-9-(hydroxymethyl)-2,2,6a,6b,9,12a-hexamethyl-1,2,3,4,4a,5,6,6a,6b,7,8,8a,9,10,11,12,12a,12b,13,14b-icosahydropicene-4a-carbonyl)oxy)butyl-6-methylpyrazine-2-carboxylate] returned a melting point of 128 °C. Also, in data set [1], the IC50 amounted to 17.1 ± 1.01 µM. The IC50 in data set [2] was 17.6 ± 1.85 µM. Further, the IC50 in data set [3] stood at 19.8 ± 1.27 µM. In data set [4], the IC50 is 17.98 ± 0.04 µM. For the same compound, the IC50 in data set [5] is 6.71 ± 0.2 µM.
